Experimental data: ChEMBL document CHEMBL2311486, “Development of vizantin, a safe immunostimulant, based on the structure-activity relationship of trehalose-6,6'-dicorynomycolate” (J Med Chem, 2013)
Activity calls are given as the source filed them. No cut-off for these calls is given here.

How the values were obtained:
[1] = test system: Mus musculus; assay: Immunostimulatory activity in ICR mouse assessed as induction of MIP-1beta release at 100 uM, iv after 2 hrs by ELISA; format: functional, organism-based
[2] = test system: Mus musculus; assay: Immunostimulatory activity in ICR mouse assessed as induction of IL-6 release at 100 uM, iv after 2 hrs by ELISA; format: functional, organism-based
[3] = test system: Mus musculus; assay: Antitumor activity against mouse B16F0 cells allografted in C57BL/6 mouse assessed as inhibition of lung metastasis at 1000 ug, iv administered at 7-day interval over 14 days prior to tumor implantation measured on day 28 relative to control; format: functional
[4] = test system: Mus musculus; assay: Antitumor activity against mouse B16F0 cells allografted in C57BL/6 mouse assessed as inhibition of lung metastasis at 500 ug, iv administered at 7-day interval over 14 days prior to tumor implantation measured on day 28 relative to control; format: functional
[5] = test system: Salmonella typhimurium; assay: Genotoxicity in Salmonella typhimurium TA98 after 30 mins by Ames test; format: toxicity, organism-based; settings: salmonella enterica subsp. enterica serovar typhimurium, 0.5 h
[6] = Antitumor activity against mouse B16F0 cells allografted in C57BL/6 mouse assessed as inhibition of lung metastasis at 100 ug, iv administered at 7-day interval over 14 days prior to tumor implantation measured on day 21 relative to control; format: functional
[7] = test system: THP-1; assay: Cytotoxicity against human THP1 cells assessed as induction of TNF-alpha release; format: cell-based
[8] = test system: Macrophage; assay: Immunostimulatory activity in ICR mouse macrophage assessed as induction of phagocytic activity at 50 uM after 2 hrs by fluorescent microsphere assay; format: functional, cell-based
[9] = test system: Mus musculus; assay: Toxicity in mouse assessed as mortality at 50 mg, ip administered at 7-day interval; format: organism-based; settings: in vivo
[10] = test system: A549; assay: Immunostimulatory activity in human A549 cells assessed as induction of MIP-1beta release at 100 uM after 3 hrs by ELISA; format: functional, cell-based
[11] = Antitumor activity against mouse B16F0 cells allografted in C57BL/6 mouse assessed as inhibition of lung metastasis at 100 ug, iv administered at 7-day interval over 14 days prior to tumor implantation measured on day 28 relative to control; format: functional
[12] = test system: DLD-1; assay: Immunostimulatory activity in human DLD1 cells assessed as induction of MIP-1beta release at 100 uM after 3 hrs by ELISA; format: functional, cell-based
[13] = test system: THP-1; assay: Immunostimulatory activity in human THP1 cells assessed as induction of MIP-1beta release at 100 uM after 3 hrs by ELISA; format: functional, cell-based
[14] = test system: Macrophage; assay: Immunostimulatory activity in ICR mouse macrophage assessed as induction of phagocytic activity measuring MIP-1beta secretion at 50 uM after 2 hrs by ELISA; format: functional, cell-based
[15] = test system: Macrophage; assay: Immunostimulatory activity in ICR mouse macrophage assessed as induction of phagocytic activity measuring IL-6 secretion at 50 uM after 2 hrs by ELISA; format: functional, cell-based

| Structure (SMILES) | Activity [1] | Activity [2] | Activity [8] | further results |
| --- | --- | --- | --- | --- |
| CCCCCCCCCCC(CCCCCCCCCC)CC(=O)OC[C@H]1O[C@H](O[C@H]2O[C@H](COC(=O)CC(CCCCCCCCCC)CCCCCCCCCC)[C@@H](O)[C@H](O)[C@H]2O)[C@H](O)[C@@H](O)[C@@H]1O | Active | Active | – | – |
| CCCCCCCCCC(CCCCCCCCC)CC(=O)OC[C@H]1O[C@H](O[C@H]2O[C@H](COC(=O)CC(CCCCCCCCC)CCCCCCCCC)[C@@H](O)[C@H](O)[C@H]2O)[C@H](O)[C@@H](O)[C@@H]1O [VIZANTIN] | Active | Active | Active | inhibition (INH) [3]: 66%; inhibition (INH) [4]: 62%; Activity [5]: Non-toxic; inhibition (INH) [6]: >98%; Activity [7]: Non-toxic; Activity [9]: Non-toxic; Activity [10]: inactive; inhibition (INH) [11]: 57%; Activity [12]: inactive; Activity [13]: Active |
| CCCCCCCCCC(CCCCCCCCC)C(=O)OC[C@H]1O[C@H](O[C@H]2O[C@H](COC(=O)C(CCCCCCCCC)CCCCCCCCC)[C@@H](O)[C@H](O)[C@H]2O)[C@H](O)[C@@H](O)[C@@H]1O | Active | Active | – | – |
| CCCCCCCCC(CCCCCCCC)C(=O)OC[C@H]1O[C@H](O[C@H]2O[C@H](COC(=O)C(CCCCCCCC)CCCCCCCC)[C@@H](O)[C@H](O)[C@H]2O)[C@H](O)[C@@H](O)[C@@H]1O | Active | Active | – | – |
| CCCCCCCCCCCCC(CCCCCCCCCCCC)CC(=O)OC[C@H]1O[C@H](O[C@H]2O[C@H](COC(=O)CC(CCCCCCCCCCCC)CCCCCCCCCCCC)[C@@H](O)[C@H](O)[C@H]2O)[C@H](O)[C@@H](O)[C@@H]1O | Active | Active | – | – |
| CCCCCCCCCCCCCCCCC(CCCCCCCCCCCCCC)C(=O)OC[C@H]1O[C@H](O[C@H]2O[C@H](COC(=O)C(CCCCCCCCCCCCCC)CCCCCCCCCCCCCCCC)[C@@H](O)[C@H](O)[C@H]2O)[C@H](O)[C@@H](O)[C@@H]1O (stereo not given in full) | Active | Active | Active | – |
| CCCCCCCCCCCCC(CCCCCCCCCCCC)C(=O)OC[C@H]1O[C@H](O[C@H]2O[C@H](COC(=O)C(CCCCCCCCCCCC)CCCCCCCCCCCC)[C@@H](O)[C@H](O)[C@H]2O)[C@H](O)[C@@H](O)[C@@H]1O | Active | Active | – | – |
| CCCCCCCCCCCCCCC[C@@H](O)[C@@H](CCCCCCCCCCCCCC)C(=O)OC[C@H]1O[C@H](O[C@H]2O[C@H](COC(=O)[C@H](CCCCCCCCCCCCCC)[C@H](O)CCCCCCCCCCCCCCC)[C@@H](O)[C@H](O)[C@H]2O)[C@H](O)[C@@H](O)[C@@H]1O | Active | Active | Active | inhibition (INH) [3]: 41%; Activity [14]: Active; Activity [15]: Active; Activity [10]: inactive; Activity [12]: inactive; Activity [13]: inactive |
| CCCCCCCCCC(CCCCCCCCC)CCC(=O)OC[C@H]1O[C@H](O[C@H]2O[C@H](COC(=O)CCC(CCCCCCCCC)CCCCCCCCC)[C@@H](O)[C@H](O)[C@H]2O)[C@H](O)[C@@H](O)[C@@H]1O | – | – | inactive | – |
| CCCCCCCCCCCCCC(CCCCCCCCCCCCC)CC(=O)OC[C@H]1O[C@H](O[C@H]2O[C@H](COC(=O)CC(CCCCCCCCCCCCC)CCCCCCCCCCCCC)[C@@H](O)[C@H](O)[C@H]2O)[C@H](O)[C@@H](O)[C@@H]1O | Active | Active | – | – |
| CCCCCCCCCCCCCCC(CCCCCCCCCCCCCC)C(=O)OC[C@H]1O[C@H](O[C@H]2O[C@H](COC(=O)C(CCCCCCCCCCCCCC)CCCCCCCCCCCCCC)[C@@H](O)[C@H](O)[C@H]2O)[C@H](O)[C@@H](O)[C@@H]1O | Active | Active | – | – |
| CCCCCCCCCCCCCCC(CCCCCCCCCCCCCC)CC(=O)OC[C@H]1O[C@H](O[C@H]2O[C@H](COC(=O)CC(CCCCCCCCCCCCCC)CCCCCCCCCCCCCC)[C@@H](O)[C@H](O)[C@H]2O)[C@H](O)[C@@H](O)[C@@H]1O | Active | Active | – | – |
| CCCCCCCCC(CCCCCCCC)CC(=O)OC[C@H]1O[C@H](O[C@H]2O[C@H](COC(=O)CC(CCCCCCCC)CCCCCCCC)[C@@H](O)[C@H](O)[C@H]2O)[C@H](O)[C@@H](O)[C@@H]1O | Active | Active | – | – |
| CCCCCCCCCCCCCCCCC(CCCCCCCCCCCCCCCC)C(=O)OC[C@H]1O[C@H](O[C@H]2O[C@H](COC(=O)C(CCCCCCCCCCCCCCCC)CCCCCCCCCCCCCCCC)[C@@H](O)[C@H](O)[C@H]2O)[C@H](O)[C@@H](O)[C@@H]1O | Active | Active | – | – |
| CCCCCCCCCCC(CCCCCCCCCC)C(=O)OC[C@H]1O[C@H](O[C@H]2O[C@H](COC(=O)C(CCCCCCCCCC)CCCCCCCCCC)[C@@H](O)[C@H](O)[C@H]2O)[C@H](O)[C@@H](O)[C@@H]1O | Active | Active | Active | Activity [10]: inactive; Activity [12]: inactive; Activity [13]: inactive |
| CCCCCCCCCCCCCCCC(CCCCCCCCCCCCCCC)C(=O)OC[C@H]1O[C@H](O[C@H]2O[C@H](COC(=O)C(CCCCCCCCCCCCCCC)CCCCCCCCCCCCCCC)[C@@H](O)[C@H](O)[C@H]2O)[C@H](O)[C@@H](O)[C@@H]1O | Active | Active | – | – |
| CCCCCCCCCCCCCCC[C@@H](OC)[C@@H](CCCCCCCCCCCCCC)C(=O)OC[C@H]1O[C@H](O[C@H]2O[C@H](COC(=O)[C@H](CCCCCCCCCCCCCC)[C@@H](CCCCCCCCCCCCCCC)OC)[C@@H](O)[C@H](O)[C@H]2O)[C@H](O)[C@@H](O)[C@@H]1O | – | – | Active | Activity [14]: Active; Activity [15]: Active |
| CCCCCCCCC(CCCCCCCC)CCC(=O)OC[C@H]1O[C@H](O[C@H]2O[C@H](COC(=O)CCC(CCCCCCCC)CCCCCCCC)[C@@H](O)[C@H](O)[C@H]2O)[C@H](O)[C@@H](O)[C@@H]1O | – | – | inactive | – |
| CCCCCCCCCCCCCC(CCCCCCCCCCCCC)C(=O)OC[C@H]1O[C@H](O[C@H]2O[C@H](COC(=O)C(CCCCCCCCCCCCC)CCCCCCCCCCCCC)[C@@H](O)[C@H](O)[C@H]2O)[C@H](O)[C@@H](O)[C@@H]1O | Active | Active | – | – |
| CCCCCCCCCCCC(CCCCCCCCCCC)CC(=O)OC[C@H]1O[C@H](O[C@H]2O[C@H](COC(=O)CC(CCCCCCCCCCC)CCCCCCCCCCC)[C@@H](O)[C@H](O)[C@H]2O)[C@H](O)[C@@H](O)[C@@H]1O | Active | Active | – | – |
| CCCCCCCCCCCC(=O)O | – | – | inactive | – |
| CCCCCCCCCCCC(CCCCCCCCCCC)C(=O)OC[C@H]1O[C@H](O[C@H]2O[C@H](COC(=O)C(CCCCCCCCCCC)CCCCCCCCCCC)[C@@H](O)[C@H](O)[C@H]2O)[C@H](O)[C@@H](O)[C@@H]1O | Active | Active | – | – |
